A short description of series [1]: Safety monitoring. Format: in vivo, human (healthy subjects). The following applies: for Tolerability: doses administered alone or in combination, healthy subjects.
For series [2], the system named is HMG‐CoA reductase. As to conditions: cited from earlier work.
For series [3] the following is noted: oral contraceptives, CYP3A substrates; cited from earlier work.
In series [4] the test system is CYP3A. The following applies: upadacitinib 30 mg once daily, healthy subjects; cited from earlier work.
For series [5] the following is noted: cited from earlier work.
Series [6] is classed as in vivo, human (healthy subjects).
The conditions of series [7]: cited from earlier work. The source holds these as a separate data set.
Series [8] is classed as in vivo, human (healthy subjects). As to conditions: for CL/F / Cmax: N = 24, mean ± SD.
Series [9] concerns breast cancer resistance protein (BCRP). As to conditions: in vitro assessments; cited from earlier work.
In series [10] the target is T1, BCRP (Homo sapiens, UniProt Q9UNQ0).
T1 sequence (Q9UNQ0 1-655): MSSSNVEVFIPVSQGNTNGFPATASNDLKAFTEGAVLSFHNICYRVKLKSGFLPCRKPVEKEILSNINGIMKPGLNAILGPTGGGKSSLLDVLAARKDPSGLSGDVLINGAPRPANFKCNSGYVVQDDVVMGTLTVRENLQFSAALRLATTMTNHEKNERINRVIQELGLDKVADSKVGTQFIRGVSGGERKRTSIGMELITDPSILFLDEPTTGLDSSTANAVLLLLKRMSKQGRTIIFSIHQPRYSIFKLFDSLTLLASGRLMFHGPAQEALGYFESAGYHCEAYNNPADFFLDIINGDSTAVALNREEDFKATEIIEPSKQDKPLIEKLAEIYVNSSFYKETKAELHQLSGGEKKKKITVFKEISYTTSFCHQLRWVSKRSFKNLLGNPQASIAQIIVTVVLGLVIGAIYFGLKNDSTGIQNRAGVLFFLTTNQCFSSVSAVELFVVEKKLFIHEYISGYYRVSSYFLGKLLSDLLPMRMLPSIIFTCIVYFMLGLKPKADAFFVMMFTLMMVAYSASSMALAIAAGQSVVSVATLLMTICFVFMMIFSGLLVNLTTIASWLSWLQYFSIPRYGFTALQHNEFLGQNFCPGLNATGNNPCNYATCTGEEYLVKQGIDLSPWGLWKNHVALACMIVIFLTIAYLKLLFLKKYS
Put plainly: In vivo transporter inhibition by upadacitinib inferred from statin exposures. Also on record: species or system human (healthy subjects). The following applies: upadacitinib 30 mg once daily; no increase in rosuvastatin or atorvastatin exposures.

The test system of series [11] is P‐glycoprotein. The following applies: in vitro assessments; cited from earlier work.
Series [12] concerns organic anion transporting polypeptide (OATP) 1B1. The following applies: in vitro assessments, at clinically relevant concentrations; cited from earlier work.
The subject of series [13] is CYP2C19. The following applies: following upadacitinib dosing in the cocktail drug interaction study; cited from earlier work.
Series [14] concerns BCRP. The following applies: in vitro assessments, at clinically relevant concentrations; cited from earlier work.
In series [15] the test system is OATP1B. Put plainly: In vivo transporter inhibition by upadacitinib inferred from statin exposures. Also on record: species or system human (healthy subjects). As to conditions: upadacitinib 30 mg once daily; no increase in rosuvastatin or atorvastatin exposures.
Series [16] has as its system CYP2D6. The following applies: following upadacitinib dosing in the cocktail drug interaction study; cited from earlier work.
Series [17] has as its system CYP1A2. As to conditions: following upadacitinib dosing in the cocktail drug interaction study; cited from earlier work.
The format of series [18] is in vivo, human (healthy subjects). The following applies: for CL/F: N = 12, mean ± SD.
Series [19] has as its system CYP2C9. The following applies: following upadacitinib dosing in the cocktail drug interaction study; cited from earlier work.
The mark [20] stands for this setting: atorvastatin 10 mg + upadacitinib 30 mg once daily, period 2 day 7, N = 24.
Where [21] appears, read: atorvastatin 10 mg alone, period 1 day 1, N = 24.
[22] abbreviates: atorvastatin 10 mg alone, period 1 day 1, N = 24, mean ± SD.
[23] abbreviates: rosuvastatin 5 mg, upadacitinib 30 mg once daily.
The mark [24] stands for this setting: part 2, period 2 day 6, upadacitinib 30 mg once daily alone.
Setting [25] is: part 2, period 2 day 7, upadacitinib 30 mg once daily + atorvastatin 10 mg single dose.
Setting [26] is: upadacitinib 30 mg once daily at steady state.

The values below come from PMC8596765 (Clinical Pharmacology in Drug Development, 2021).

Entries after “also recorded” stand apart in the source; their conditions may differ. Like-named read-outs stand apart in the source and are kept apart here.

On to `CC(C)c1c(C(=O)Nc2ccccc2)c(-c2ccccc2)c(-c2ccc(F)cc2)n1CC[C@@H](O)C[C@@H](O)CC(=O)O` [atorvastatin], for which the Tolerability result in series [1] is reported as “generally well tolerated”.
For `CC(C)c1nc(NS(C)(=O)=O)nc(-c2ccc(F)cc2)c1/C=C/[C@@H](O)C[C@@H](O)CC(=O)O` [N‐desmethyl rosuvastatin], the “Inhibitory activity of HMG‐CoA reductase compared to rosuvastatin” value in series [2] is given as “minimal inhibitory activity”.
Turning to `C#C[C@]1(O)CC[C@H]2[C@@H]3CCC4=CC(=O)CC[C@@H]4[C@H]3CC[C@@]21CC` [levonorgestrel], in [3], the “Effect of upadacitinib on plasma exposures” value was “lack of effect; also recorded: no effect”.
As to `CC(C)c1c(C(=O)Nc2ccccc2O)c(-c2ccccc2)c(-c2ccc(F)cc2)n1CC[C@@H](O)C[C@@H](O)CC(=O)O` [ortho‐hydroxyatorvastatin], under setting [20], the “t1/2 (arithmetic mean ± standard deviation)” value worked out at 10.7 ± 2.76 h and the “t1/2 (harmonic mean ± pseudo-standard deviation)” value stood at 10.0 ± 2.60 h. In addition, under setting [21], the “t1/2 (arithmetic mean ± standard deviation)” value is reported as 12.9 ± 5.76 h and the “t1/2 (harmonic mean ± pseudo-standard deviation)” value is listed as 11.1 ± 3.92 h. Further, under setting [22], the “Ortho‐hydroxyatorvastatin to atorvastatin AUCinf ratio” value is recorded as 1.39 ± 0.499 and the “Ortho‐hydroxyatorvastatin to atorvastatin AUCt ratio” value is 1.33 ± 0.492. In addition, the tmax (atorvastatin 10 mg alone, period 1 day 1, N = 24, median (minimum-maximum)) was 4.0 (2.0‐8.0) h. Further, the Cmax (atorvastatin 10 mg single dose + upadacitinib 30 mg once daily, period 2 day 7, N = 24, mean ± SD) is recorded as 1.54 ± 0.610 ng/mL. Where the note is “atorvastatin 10 mg single oral dose alone, period 1 day 1, N = 24, mean ± SD”, this molecule yielded a Cmax of 1.58 ± 0.716 ng/mL.
In the case of `Cc1ncc2n1-c1ccc(Cl)cc1C(c1ccccc1F)=NC2` [midazolam], in series [4], the “Decrease in AUC when administered with upadacitinib relative to alone” value is 26% and the “Decrease in Cmax when administered with upadacitinib relative to alone” value is 26%.
For the molecule `C#C[C@]1(O)CC[C@H]2[C@@H]3CCc4cc(O)ccc4[C@H]3CC[C@@]21C` [ethinylestradiol], in [3], the “Effect of upadacitinib on plasma exposures” value is reported as “lack of effect; also recorded: no effect”.
`CC(C)c1nc(N(C)S(C)(=O)=O)nc(-c2ccc(F)cc2)c1/C=C/[C@@H](O)C[C@@H](O)CC(=O)O` [rosuvastatin]: the Tolerability result in [1] is recorded as “generally well tolerated”. Also, the “Intrasubject variability in plasma exposures” value in series [5] was “≈ 25%”. In [6] (human, plasma, oral, 5 mg), this molecule showed an AUC(0-inf) of 0.0228 ± 0.00669 µg·h/mL and an exposure AUC(0-t) of 0.0175 ± 0.00653 µg·h/mL. Further, the half-life in series [6] (human, plasma, oral, 5 mg, t1/2 (arithmetic mean ± standard deviation), rosuvastatin 5 mg alone, period 1 day 1, N = 12) is 27.5 h. In addition, the Cmax in series [6] (human, plasma, po, 5 mg) was 1.91 ± 0.699 ng/mL. The “Cmax central value ratio (90%CI)” value in series [6] (rosuvastatin 5 mg with upadacitinib 30 mg once daily versus rosuvastatin alone) amounted to 0.77. Moreover, in series [6] (setting [23]), the “AUCinf lower when administered with upadacitinib relative to alone” value turned out to be 33% and the “Cmax lower when administered with upadacitinib relative to alone” value is 23%.
Consider `CC[C@@H]1CN(C(=O)NCC(F)(F)F)C[C@@H]1c1cnc2cnc3[nH]ccc3n12` [upadacitinib], for which, in series [7] (once‐daily dosing of the extended‐release formulation), the “Time to steady state” value is listed as at most 4 days. In [7] (repeated once‐daily dosing of the extended‐release formulation), the Accumulation in plasma entry was “no significant accumulation”. Moreover, the AUC is 0.547 ± 0.112 µg·h/mL in series [8] (human, plasma, oral, 30 mg) and 0.585 ± 0.153 µg·h/mL in series [18] (human, plasma, oral, 30 mg). Further, the concentration at 24 h came out at 4.3 ± 1.74 ng/mL in series [8] (human, plasma, oral, 30 mg) and 5.17 ± 1.56 ng/mL in [18] (human, plasma, oral, 30 mg). The CL/F in series [8] (setting [24]) stood at 57.2 ± 12.3 L/h; in series [8] (setting [25]) it was 58.4 ± 11.7 L/h; in series [18] (part 1, period 2 day 6, upadacitinib 30 mg once daily alone) it was 54.6 ± 14.4 L/h; in series [18] (part 1, period 2 day 7, upadacitinib 30 mg once daily + rosuvastatin 5 mg single dose), 55.9 ± 14.7 L/h. Also, the Cmax in series [8] (setting [24]) worked out at 76.5 ± 16.1 ng/mL; in series [8] (setting [25]), 73.2 ± 17.1 ng/mL; in [18] (human, plasma, oral, 30 mg), 73 ± 23.6 ng/mL. Also, the “Effect of single 10‐mg dose of atorvastatin on upadacitinib Cmax or AUC” value in [8] (setting [26]) is listed as “no relevant effect”. For the same molecule, the “Substrate for BCRP” value in series [9] was “is a substrate”. Moreover, the Tolerability result in [1] is on record as “generally well tolerated”. The “Patients reporting constipation (grade 1)” value in [1] (during treatment with rosuvastatin and upadacitinib, N = 12) stood at 1 patient. Further, the New safety findings entry in [1] (upadacitinib alone or with the statins) is “no new safety findings”. Moreover, the “Inhibition of BCRP in vivo” value in series [10] is listed as “lack of inhibition”. Besides, the “Substrate for P‐glycoprotein” value in series [11] is given as “is a substrate”. Besides, in series [12], the “Inhibition of OATP1B1” value is reported as “not expected to inhibit”. The “Effect on CYP2C19 activity” value in series [13] was “No relevant effects”. For the same molecule, the “Inhibition of BCRP” value in series [14] is “not expected to inhibit”. In addition, under “upadacitinib 30 mg once daily, atorvastatin 10 mg”, the “Effect of upadacitinib on the pharmacokinetics of atorvastatin” value is listed as “no clinically relevant effect”. Also, the “Inhibition of OATP1B in vivo” value in [15] is listed as “lack of inhibition”. For the same molecule, the “Effect on CYP2D6 activity” value in series [16] is recorded as “No relevant effects”. Besides, the “Effect on CYP1A2 activity” value in series [17] is listed as “No relevant effects”. Besides, the “Effect of upadacitinib on the pharmacokinetics of rosuvastatin” value in series [6] (upadacitinib 30 mg once daily, rosuvastatin 5 mg) was “no clinically relevant effect”. Also, the “Effect of single 5‐mg dose of rosuvastatin on upadacitinib Cmax or AUC” value in series [18] (setting [26]) is reported as “no relevant effect”. In [19], the “Effect on CYP2C9 activity” value is “No relevant effects”.

The Cmax is the peak of the concentration-time curve. For orientation: AUC(0-inf) means the area under the concentration-time curve extrapolated to infinity. Read a high AUC(0-inf) as more exposure. In general, AUC(0-t) refers to exposure summed from dosing to a finite time, without extrapolation to infinity. Low values mean less exposure, high ones more exposure. Usually half-life stands for the time needed for the level to fall by half in the phase considered. In general, AUC refers to concentration integrated over time. High values mean more exposure, low ones less exposure. What is called CL/F is clearance divided by bioavailability, as obtained after extravascular dosing.
